Test results published in paper PMC8296573, “Synthesis and Biological Evaluation of Fingolimod Derivatives as Antibacterial Agents” (ACS Omega, 2021).
In brackets after ≈: the same amount, converted by molar mass.

Experiments:
A549 = assay: Cytotoxicity, resazurin staining assay; type: cell-based, human; settings: 24 h incubation
Experimental: (§1) The cytotoxicity of the compounds was assessed on the three different human cell lines, A549, HEp-2, and HL-60, using the redox-based resazurin staining assay. The cells were seeded in clear 96-well plates at a density of 1 × 10^4 cells per well in a volume of 200 μL per well. The adherent cells were let to attach for 24 h before changing the media and adding the compounds (final concentration of 0.25% DMSO). HL-60 were counted and added to the plates at a density of 1 × 10^4 cells per well in a volume of 200 μL directly with the compounds. Untreated cells were used as negative controls, and cells treated with 1% TritonX-100 (Sigma-Aldrich, St. Louis, MO) were used as positive controls for cytotoxicity. The cells were incubated with the compounds for 24 h.
(§2) For the resazurin assay, the media was first removed, and the adherent cells were washed once with PBS. Then, 200 μL of 20 μM resazurin was added per well and cells were incubated for two more hours before the measurement of fluorescence, as mentioned earlier. For HL-60, 10 μL of 400 μM resazurin was added directly to the wells and the cells were incubated for an additional 4 h before the measurement of fluorescence.

HEp-2 = assay: Cytotoxicity, resazurin staining assay; type: cell-based, human; settings: 24 h incubation
Experimental: as §1, §2

HL-60 = assay: Cytotoxicity, resazurin staining assay; type: cell-based, human; settings: 24 h incubation
Experimental: as §1, §2

[1] = system: C. violaceum ATCC 31532 (wild type); assay: Quorum sensing inhibition assay (violacein) with parallel resazurin viability; type: cell-based, Chromobacterium violaceum; settings: wild-type strain
Experimental: (§3) The QS inhibitory activity of the compounds was assessed as described previously.[31],[47] Briefly, two QS reporter strains, C. violaceum ATCC 31532 and the violacein-negative, mini-Tn5 mutant of C. violaceum CV026 (NCTC 13278), were grown on LBA (for CV026, the agar was supplemented with kanamycin at 100 μg mL^–1) overnight at 27 °C. Colonies were suspended in PDYT (0.5% peptone, 0.3% D-glucose, 0.25% yeast extract, 0.05% L-tryptophan, w/v) to reach an OD600 of 0.02. The CV026 culture was supplemented with C6-HSL (N-hexanoyl-L-homoserine lactone) (10007896, Cayman Chemical, MI) at 0.5 μM to induce the QS-moderated synthesis of violacein. For each strain, 200 μL of bacterial culture was added per well in two identical 96-well plates containing the compounds (2 μL per well for a final DMSO concentration of 1%). In each 96-well plate, untreated cells were used as negative controls and quercetin (Q4951, Sigma-Aldrich) and azithromycin (PZ0007, Sigma-Aldrich) were included as positive controls for QS inhibition and cell viability (bactericidal activity), respectively. The plates were incubated at 27 °C under aerobic conditions (200 rpm) for 22 h.
(§4) The synthesized and nonsoluble violacein was collected from the first 96-well plate by centrifugation (4000 rpm, for 15 min, 20 °C), and the supernatants were removed. Violacein was dissolved in 100 μL per well of 96% (v/v) ethanol and was separated from cells by centrifugation as described above. The supernatant containing violacein was then transferred to a new 96-well plate, and the absorbance was measured at 595 nm using a Multiskan Sky Microplate spectrophotometer. To detect any bactericidal effects, the viability of the cells was measured in the second replica plate by adding 10 μL of 400 μM resazurin in each well and incubating the plate for 30 min in the dark at 27 °C (220 rpm). After centrifugation of the plate to separate the cells from the solution, 100 μL of each well were transferred into a new 96-well plate and the fluorescence was recorded as described above using the Varioskan LUX multimode plate reader.

[2] = system: C. violaceum CV026 (AHL-deficient mutant); assay: as above; type: cell-based, Chromobacterium violaceum; settings: mutant strain
Experimental: as §3, §4

Solubility in DMSO = type: physicochemical
S. aureus ATCC 25923 [3] = assay: S. aureus attachment on LDPE tubes, alone or in coculture with differentiated HL-60 cells; type: cell-based, Staphylococcus aureus; settings: 25 μM, 24 h
Experimental: The coculture system was as previously described.[40] Briefly, the bacteria were prepared as described above and the concentration was adjusted to 2 × 10^7 CFU mL^–1 in RPMI 1640. The media of the differentiated HL-60 cells was refreshed with RPMI 1640 24 h before the experiments to remove possible traces of antibiotics. On the day of the experiment, the cells were counted and adjusted to a concentration of 2 × 10^5 cells mL^–1 in RPMI 1640. Each suspension (bacterial and differentiated HL-60 cells, 500 μL of each) was added on 1-cm-long sections of a sterilized fine bore LDPE tubing (Smiths Medical ASD, Minneapolis, MN) in 24-well plates (Nunclon Δ surface, Nunc, Roskilde, Denmark). Fingolimod was also added to the wells at a concentration of 25 μM (0.25% DMSO). Coculture controls with no added compound were included, as well as bacterial controls without differentiated HL-60 cells with and without fingolimod. The plates were incubated for 24 h in the same conditions as for cell maintenance. Then, the LDPE tubes were gently washed with TSB to remove adhering planktonic cells and transferred to Eppendorf tubes containing 1 mL of 0.5% (w/v) Tween 20-TSB solution. Next, the tubes were sonicated in a water bath sonicator (Branson Ultrasonics, Danbury, CT) for 5 min at 35 kHz. The tubes were vortexed for 20 s prior to and after the sonication step. […]

S. aureus ATCC 25923 [4] = system: S. aureus ATCC 25923; design: method as in PMID 33233348; settings: previously found; cited from earlier work
A. baumannii NCTC 13423 = system: A. baumannii NCTC 13423; design: method as in PMID 33233348; settings: previously reported; cited from earlier work

**Q.** Which CC50 (A549) does the source give for “2-Amino-2-(4-decylbenzyl)propane-1,3-diol [Compound 45]” here?
**A.** 27.4 ± 15.1 µM

**Q.** And the CC50 (HEp-2)?
**A.** > 40 µM

**Q.** What about the CC50 (HL-60) of the same molecule?
**A.** 3.2 ± 1 µM

**Q.** For `CCCCCCCCCCc1ccc(CCC(N)(CO)CO)nc1` [Compound 62, 2-Amino-2-[2-(5-decylpyridin-2-yl)ethyl]propane-1,3-diol], which “QSI activity compared with fingolimod” value [1] is on record?
**A.** significantly worse than fingolimod

**Q.** Which “QSI activity compared with fingolimod” value [1] does the source give for `CCCCCCCCc1ccc2cc(CC(N)(CO)CO)ccc2c1` [Compound 79, 2-Amino-2-[(6-octylnaphthalen-2-yl)methyl]propane-1,3-diol] here?
**A.** significantly lower QSI activity than fingolimod

**Q.** And the “QSI activity compared with fingolimod” value [2]?
**A.** significantly lower QSI activity than fingolimod

**Q.** With `CCCCCCCCCCc1ccc2nc(CCC(N)(CO)CO)ccc2c1` [Compound 81, 2-Amino-2-[2-(6-decylquinolin-2-yl)ethyl]propane-1,3-diol] as the molecule, how does the “Solubility in dimethyl sulfoxide (DMSO)” value (Solubility in DMSO) read?
**A.** not fully soluble

**Q.** Which “QSI activity compared with fingolimod” value [2] does the source give for `CCCCCCCCc1ccc2ccc(CC(N)(CO)CO)nc2c1` [Compound 82, 2-Amino-2-[(7-octylquinolin-2-yl)methyl]propane-1,3-diol] here?
**A.** significantly better QSI activity

**Q.** With `CCCCCCCCc1ccc(CCC(N)(CO)CO)cc1` [fingolimod, Fingolimod] as the molecule, how does the “Bacterial attachment on LDPE tubes” value (S. aureus ATCC 25923 [3]; in combination with HL-60 cells, vs coculture control (p = 0.042)) read?
**A.** significant reduction

**Q.** And the “Numbers of attached viable S. aureus on LDPE tubes” value (S. aureus ATCC 25923 [3]; in the absence of HL-60 cells, vs monoculture control (p = 0.013))?
**A.** significantly reduced

**Q.** And the “Solubility in dimethyl sulfoxide (DMSO)” value (Solubility in DMSO)?
**A.** not fully soluble

**Q.** What about the “MIC in pre-exposure, S. aureus” value (S. aureus ATCC 25923 [4]) of the same molecule?
**A.** 15 µM (≈ 4.61 µg/mL)

**Q.** What about the “MIC A. baumannii” value (A. baumannii NCTC 13423) of the same molecule?
**A.** 25 µM (≈ 7.69 µg/mL)
